Experimental data from publication PMC6379368, “Extracellular and intracellular small-molecule galectin-3 inhibitors” (Scientific Reports, 2019).

Key:
Format in all cases: cell-based
PanC-1 cells [1] = assay: Growth curves, PanC-1; details: PanC-1, 10 µM
Experimental: (§1) METHODS (not described in main article)
(§2) The AsPC-1, BxPc-3, MIA PaCa-2, and PanC-1 pancreatic cancer cell lines were purchased from the American Type Culture Collection (ATCC) (Manassas, VA, USA). AsPC-1 and BxPc-3 cell lines were cultured in RPMI-1640 medium, and MIA PaCa-2 and PanC-1 in Dulbecco's Modified Eagle Medium (DMEM)/Ham's F12 medium mixture (1:1). The medium of all four pancreatic cancer cell lines was supplemented with 10 % fetal bovine serum (FBS), 100 U/ml penicillin, and 100 μg/ml streptomycin. The L56Br-C1 breast cancer cell line was established at Lund University (Lund, Sweden)1, and was cultured in RPMI-1640 medium supplemented with 10 % heat-inactivated FBS, 100 U/ml penicillin, 100 μg/ml streptomycin, 1 mM non-essential amino acids, and 10 µg/ml insulin. The MCF-10A normal-like breast cell line was obtained from ATCC and was cultured in the same medium mixture as L56Br-C1 with the addition of 20 ng/ml epidermal growth factor, 50 ng/ml cholera toxin, and 500 ng/ml hydrocortisone.
(§3) Fluorescence anisotropy assay
(§4) The affinity between inhibitor 1 and the carbohydrate recognition domain (CRD) of galectin-8C and between inhibitor 3 and the CRD of galectin-2, -4N, -4C, 8C, and -9C was determined using the fluorescence anisotropy assay described in the main article. Experimental conditions used for each galectin […]

MCF-7 cells = assay: MTT cell viability assay, MCF-7; details: MCF-7, 72 hours, 0.04–40 µM for 1 and 2, 0.04–20 µM for 3
Experimental: The MTT (3-[4,5-dimethylthiazol-2-yl]−2,5-diphenyltetrazolium bromide) assays were performed as previously described. […] The cells were incubated for 24 hours before addition of galectin-3 inhibitors. The inhibitors were diluted in PBS from their respective stock solution in DMSO (see Galectin-3 inhibitors) and used at final concentrations ranging from 0.04 to 40 μM. DMSO was adjusted to make the final DMSO concentration 0.2% for all inhibitor concentrations, including the control sample (no inhibitor). After 72 hours of treatment, 20 μl of 5 mg/ml MTT solution (in PBS) was added to each well and incubation continued for 1 hour at 37 °C. Thereafter, the MTT containing medium was removed and 100 μl of DMSO was added per well and the plates swirled gently for 10 minutes to dissolve the cells and the purple formazan product precipitate. Absorbance was monitored at 540 nm using a Labsystems iEMS Reader MF (Labsystems Oy, Helsinki, Finland) and the software DeltaSoft II v.4.14 (Biometallics Inc., Princeton, NJ, USA).

MCF-10A cells = assay: MTT assay, MCF-10A normal-like breast cell line; details: 72 hours
Experimental: (§5) The MTT (3-[4,5-dimethylthiazol-2-yl]−2,5-diphenyltetrazolium bromide) assays were performed as previously described. In brief, cells were seeded in 96-well plates (6000 cells/well for MCF-7 and HCC1937 and 5000 cells for JIMT-1 in 180 μl fully-supplemented medium as described under Cell culture). The cells were incubated for 24 hours before addition of galectin-3 inhibitors. The inhibitors were diluted in PBS from their respective stock solution in DMSO (see Galectin-3 inhibitors) and used at final concentrations ranging from 0.04 to 40 μM. DMSO was adjusted to make the final DMSO concentration 0.2% for all inhibitor concentrations, including the control sample (no inhibitor). After 72 hours of treatment, 20 μl of 5 mg/ml MTT solution (in PBS) was added to each well and incubation continued for 1 hour at 37 °C. […] Absorbance was monitored at 540 nm using a Labsystems iEMS Reader MF (Labsystems Oy, Helsinki, Finland) and the software DeltaSoft II v.4.14 (Biometallics Inc., Princeton, NJ, USA). […]
as §3
(§6) The affinity between inhibitor 1 and the carbohydrate recognition domain (CRD) of galectin-8C and between inhibitor 3 and the CRD of galectin-2, -4N, -4C, 8C, and -9C was determined using the fluorescence anisotropy assay described in the main article. […]

MIA PaCa-2 cells = assay: Growth curves, MIA PaCa-2; details: MIA PaCa-2, 10 µM
Experimental: as §1, §2, §3, §4

JIMT-1 cells = assay: Cell proliferation assay (growth curves), JIMT-1; details: JIMT-1, 5 µM, up to 6 days
Experimental: JIMT-1 cells were seeded in 5 cm diameter Petri dishes at a density of 400 000 cells/Petri dish. […] The cells were harvested by trypsinization and the number of cells was determined by counting in a hemocytometer (each day for a total of 6 days).

PanC-1 cells [2] = assay: MTT assay, PanC-1 pancreatic cancer cells; details: PanC-1, 72 hours
Experimental: as §5, §3, §6

**Q.** How did the “cell proliferation (growth curves)” value (PanC-1 cells [1]) turn out when `OC[C@H]1O[C@@H](S[C@@H]2O[C@H](CO)[C@H](O)[C@H](n3cc(-c4cccc(F)c4)nn3)[C@H]2O)[C@H](O)[C@@H](n2cc(-c3cccc(F)c3)nn2)[C@H]1O` [compound 1] was run?
**A.** no effect

**Q.** And the “cell viability (MTT)” value (MCF-7 cells)?
**A.** no apparent change in cell viability

**Q.** And the “toxicity (MTT)” value (MCF-10A cells)?
**A.** low toxicity

**Q.** What about the “cell proliferation (growth curves)” value (MIA PaCa-2 cells) of the same molecule?
**A.** no effect

**Q.** And the “cell proliferation (growth curves)” value (JIMT-1 cells)?
**A.** no effect on cell proliferation

**Q.** What about the “toxicity (MTT)” value (PanC-1 cells [2]) of the same molecule?
**A.** low toxicity
